Series [1] deals with human saphenous vein sections (microvessel outgrowth). Briefly: Human saphenous vein assay of angiogenesis (ex vivo). In kind it is cell-based. To be noted: positive control, 10 days of incubation. As for the experimental part: The saphenous vein was cleaned of subcutaneous tissue and embedded in Matrigel® matrix as previously described. After 10 days of incubation, the transverse sections of the veins were imaged. The outgrowth between the vehicle and no treatment (media) control was equivalent (106.65%±20.14, n=2 and 103.35%±4.06, n=2 respectively; FIGS. 13A and 13B).

Series [2] concerns chicken embryos. As to the kind of experiment: Chicken embryo development / teratogenicity. In kind it is in vivo, white leghorn chicken. The following applies: in words; applied at HH stage 17-18. How it is done: Chicken Embryology: Fertilized white leghorn chicken embryos were incubated at 38° C. and staged according to Hamburger and Hamilton (HH) stages of development (1951). Embryos were tested at HH stage 17-18 (day 2.5). Following membrane removal, test compounds or vehicle control solutions were applied globally over the embryo. The eggs were sealed and the development of the embryos was monitored up to HH stage 30 (E9).
Compounds of interest were screened in chicken embryos (FIGS. 7I-7P).
(§1) Concentrations used in the WT zebrafish and chicken embryo assays to assess for teratogenesis, were equal to or higher than those utilized in the fil1:EGFP and mpo:GFP zebrafish assays

In series [3] the test system is mpo:GFP zebrafish embryos (neutrophil migration to the wound site). As to the kind of experiment: mpo:GFP zebrafish fin-clip neutrophil migration (inflammation) assay. To be noted: for minimal effective concentration: Danio rerio, Neutrophil, lowest concentration producing an effect, compounds not producing an effect shown at the highest evaluated concentration; for mpo:GFP inflammation n (survived/tested): embryos survived/tested at the concentration given. In kind it is in vivo. Further details: mpo:GFP inflammation n (survived/tested): concentration or dose not given beside the values. In short, it runs like this: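 Tg(mpo::EGFP) larvae tail-fin clipped (dorsal third removed) at 72 hpf, then immersed in compound or vehicle. Neutrophils migrating to the wound site counted from images 24 h later; at least 50% reduction scored as anti-inflammatory. Viability and morphology also assessed.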

Series [4] deals with fli1:EGFP zebrafish embryos (intersegmental vessel growth). As to the kind of experiment: fli1:EGFP zebrafish embryo angiogenesis assay. The following applies: for minimal effective concentration: Danio rerio, lowest concentration producing an effect, compounds not producing an effect shown at the highest evaluated concentration; for fli1:EGFP angiogenesis n (survived/tested): embryos alive after 24 hours of exposure. Further details: fli1:EGFP angiogenesis n (survived/tested): concentration or dose not given beside the values. It counts as in vivo. In short, it runs like this:
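fli1:EGFP embryos grown 24 hpf, dechorionated and exposed to compound or vehicle over a range of concentrations for up to 24 h, with CPS49 as positive control. Imaged at 48 hpf for intersegmental vessel formation and growth; survival after 24 h exposure recorded, and values reflect the lowest concentration producing an effect.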

Series [5] has as its system WT zebrafish embryos. As to the kind of experiment: WT zebrafish embryo development / teratogenicity. It counts as in vivo, zebrafish (Danio rerio). To be noted: in words; at concentrations active in fli1:EGFP or mpo:GFP assays.
Source text: To determine the effects of the candidate compounds on embryonic development, two in vivo model systems (developing zebrafish and chicken embryos) were utilized.
Malformations in the development of the zebrafish embryo were noted, including inhibition of eye, otic vesicle and fin development (FIGS. 7A-7F). […] Embryos were screened at concentrations previously determined, in this study, to be anti-angiogenic or anti-inflammatory in the fli1:EGFP and mpo:GFP assays respectively.
as §1

Series [6] concerns RAW 264.7 cells. Briefly: Cell viability (CellTiter 96 AQueous One) of LPS-challenged RAW 264.7 cells. It counts as cell-based, mouse. Further details: key: NS=not significant; a “+” sign=anti-inflammatory or increased cell numbers; a “−” sign=cell toxicity or pro-inflammatory. In short, it runs like this:
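RAW 264.7 murine macrophages pretreated 1 h with compound or DMSO vehicle, then challenged with LPS (serotype 055:B5) at 30 or 60 ng/mL final for 24 h. After media replacement, viability measured by tetrazolium (MTS) conversion, absorbance at 490 nm, reported as O.D.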

Series [7] has as its system nitrite levels in the culture media. As to the kind of experiment: Nitrite level (Griess Reagent System) in LPS-challenged RAW 264.7 cells. It counts as cell-based, mouse. Further details: key: NS=not significant; a “+” sign=anti-inflammatory or increased cell numbers; a “−” sign=cell toxicity or pro-inflammatory. To be noted: LPS 30 or 60 ng/mL, 24 h. In short, it runs like this: (§2)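 RAW 264.7 cells pretreated 1 h with compound in DMSO vehicle, then challenged with LPS (30 or 60 ng/mL) for 24 h at 37° C. Conditioned-media nitrite by Griess (520 nm, sodium nitrite standard curve, 1.5 μM cutoff) in μM; mouse TNF-α by ELISA as pg/ml or % change from control.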

Series [8] has as its system TNF-α protein. Briefly: TNF-α protein level (ELISA) in LPS-challenged RAW 264.7 cells. In kind it is cell-based, mouse. Further details: key: NS=not significant; a “+” sign=anti-inflammatory or increased cell numbers; a “−” sign=cell toxicity or pro-inflammatory. To be noted: LPS 30 or 60 ng/mL, 24 h. In a few lines: as §2

Molecules are shown by their SMILES. “Also recorded” adds a separate entry of the source.

Consider `CO[C@@H]1[C@H](OC(=O)NC(=O)CCl)CC[C@]2(CO2)[C@H]1[C@@]1(C)O[C@@H]1CC=C(C)C` [TNP-470, (Chloracetyl) carbamic acid (3R,4S,5S,6R)-5-methoxy-4-[(2R,3R)-2-methyl-3-(3-methyl-2-butenyl)oxiranyl]-1-oxaspiro[2.5]oct-6-yl ester, reference compound], for which the vessel outgrowth in series [1] is 9.44%±1.65.
Regarding `O=C1c2ccccc2C(=S)N1C1CCC(=S)NC1=S` (centres unmarked) [Compound 4], in series [2], the “effect on development / mortality of chicken embryos” value was “defects and high mortality rates”. Also, in series [3], the minimal effective concentration turned out to be 10 µg/mL and the “mpo:GFP inflammation n (survived/tested)” value is on record as 19/23. Besides, in series [4], the minimal effective concentration is 1.5 µg/mL and the “fli1:EGFP angiogenesis n (survived/tested)” value is 4/11. Further, the “concentration at which anti-angiogenic activity was shown” value in series [4] (exposure from 24 hpf, imaged at 48 hpf) turned out to be 1.5 µg/mL. Besides, the “effect on development / mortality of zebrafish embryos” value in series [5] was “defects and high mortality rates; also recorded: induced defects (e.g., microophthalmia and fin malformation)”.
For `O=C1NC(=S)CCC1N1C(=O)c2ccc(Cl)cc2C1=O` (centres unmarked) [Compound 23], in series [2], the “effect on development / mortality of chicken embryos” value was “constriction in vasculature (white arrow) and necrosis (black arrow) of the chorioallantoic membrane”. For the same molecule, in series [3], the minimal effective concentration was 10 µg/mL and the “mpo:GFP inflammation n (survived/tested)” value is recorded as 13/35. Also, in series [4], the minimal effective concentration worked out at 10 µg/mL and the “fli1:EGFP angiogenesis n (survived/tested)” value is 23/30.
For the molecule `Nc1ccc2c(c1)C(=O)N(C1CCC(=O)NC1=O)C2=O` (centres unmarked) [Compound 11], in series [2], the “effect on development / mortality of chicken embryos” value is “missing digits in the hindlimb; also recorded: limb reduction defect”. Moreover, in series [3], the minimal effective concentration was found to be 10 µg/mL and the “mpo:GFP inflammation n (survived/tested)” value is listed as 16/22. Besides, in series [4], the minimal effective concentration worked out at 50 µg/mL and the “fli1:EGFP angiogenesis n (survived/tested)” value was 24/43.
With `CC(N1Cc2c(cccc2[N+](=O)[O-])C1=O)C12CC3CC(CC(C3)C1)C2` (centres unmarked) [Compound 80], the “effect on development / mortality of chicken embryos” value in series [2] was “microophthalmia (asterisk), limb reduction (white arrow), and hemorrhaging throughout the body”. Moreover, the figures for the Viability entry in series [6] (1 μM), in series [6] (10 μM) and in series [6] (30 μM) were “NS”, “−” and “NS”, respectively. For the same molecule, the results for the Nitrite result in series [7] (1 μM), in series [7] (10 μM) and in series [7] (30 μM) were “NS”, “+” and “+”, respectively. In addition, the values for the TNF-α entry in series [8] (1 μM), in series [8] (10 μM) and in series [8] (30 μM) were “NS”, “+” and “+”, respectively.
Take `O=C1CCC(N2C(=O)c3ccncc3C2=O)C(=O)N1` (centres unmarked) [Compound 58]: the minimal effective concentration in series [3] came out at 5 µg/mL; in series [4], 10 µg/mL. Also, in series [3], the “mpo:GFP inflammation n (survived/tested)” value is on record as 7/16. For the same molecule, the “anti-inflammatory activity (inhibition of neutrophil migration)” value in series [3] (in words) is recorded as “most effective analog at inhibiting the inflammatory response”. The “fli1:EGFP angiogenesis n (survived/tested)” value in series [4] is recorded as 33/33. In addition, the Viability entry in series [6] (1 μM), in series [6] (10 μM) and in series [6] (30 μM) was “NS” in each case. Moreover, the Nitrite entry in series [7] (1 μM), in series [7] (10 μM) and in series [7] (30 μM) was “+” in each case. For the same molecule, the TNF-α result in series [8] (1 μM), in series [8] (10 μM) and in series [8] (30 μM) was “NS” throughout.
Regarding `Nc1cccc2c1CN(C1C3CC4CC(C3)CC1C4)C2=O` (centres unmarked) [Compound 83], the minimal effective concentration in series [3] and in series [4] was 20 µg/mL throughout. Besides, the “mpo:GFP inflammation n (survived/tested)” value in series [3] is given as 6/23. Besides, the “fli1:EGFP angiogenesis n (survived/tested)” value in series [4] was 3/12. Further, the Viability entry in series [6] (1 μM), in series [6] (10 μM) and in series [6] (30 μM) was “NS” each time. The figures for the Nitrite result in series [7] (1 μM), in series [7] (10 μM) and in series [7] (30 μM) were “NS”, “+” and “+”, respectively. In addition, the TNF-α entry in series [8] (1 μM), in series [8] (10 μM) and in series [8] (30 μM) was “NS” in each case.
As for `O=C1c2ccccc2CN1c1ccc(C(F)(F)F)cc1` [Compound 68], the figures for the minimal effective concentration in series [3] and in series [4] were 100 µg/mL and 10 µg/mL, respectively. Besides, the “mpo:GFP inflammation n (survived/tested)” value in series [3] was 5/15. Moreover, the “fli1:EGFP angiogenesis n (survived/tested)” value in series [4] was 22/34. Further, the Viability result in series [6] (1 μM), in series [6] (10 μM) and in series [6] (30 μM) was “NS” in each case. Further, the Nitrite entry in series [7] (1 μM), in series [7] (10 μM) and in series [7] (30 μM) was “NS” each time. The TNF-α result in series [8] (1 μM), in series [8] (10 μM) and in series [8] (30 μM) was “NS” in each case.

As a reminder, the minimal effective concentration is the lowest level tested that produced the effect sought.

These data come from patent publication US11440880B2, “Thalidomide analogs and methods of use” (The USA, as represented by the Secretary, Department of …, priority 2015, dated 2022).
